From patent US9078446B2, “Use of N-(tetrazol-4-yl)- or N-(triazol-3-yl)arylcarboxamides or their salts for controlling unwanted plants in areas of transgenic crop plants being tolerant to HPPD inhibitor herbicides” (BAYER INTELLECTUAL PROPERTY GMBH, priority 2011, dated 2015)

Tests used:
Assay type in all cases: in vivo
[1] = tested on: non-transformed tobacco plants (Wt); experiment: Symptoms due to herbicide application on tobacco plants (damage classes 0-3); settings: 50 g Al/ha, one week after application
Text: (§1) Seeds harvested from TO transformants will be put on standard soil for germination. Three weeks later plantlets (T1) will be transferred to single pots and grown under standard cultivation conditions (PCT/EP2010/070575, published as WO 2011/076889). Two weeks later, plants were sprayed with several N-(tetrazol-4-yl)- or N-(triazol-3-yl)arylcarboxamides as defined above.
(§2) Tables F1 to F5: Evaluation of the Symptoms Observed Due to the Application of the Herbicides on Transgenic Tobacco Plants, Expressing the Mutant Pseudomonas fluorescens HPPD G336W, the Avena HPPD (AvHPPD), the HPPD from Kordia algicida FMP27 or the HPPD from Blepharisma japonicum (FMP37), Compared to Non-Tranformed Tobacco Plants (“Wt”).
(§3) The herbicides (with “g Al/ha” meaning “g active ingredient/ha”) were applied on 8 to 10 plants originated from 1 to 3 independent transgenic events per transgene.
(§4) The symptoms were evaluated and classified as following: • 3=Very strong damage • 2=Strong damage • 1=Light and transient damage • 0=No damage

[2] = tested on: transgenic tobacco plants expressing Avena HPPD (AvHPPD); experiment: Symptoms due to herbicide application on transgenic tobacco plants (damage classes 0-3); settings: AvHPPD line 659; 50 g Al/ha; one week after application
Text: (§5) Genes coding for the selected HPPD were obtained from a member of the group of organisms consisting of Avena sativa, Pseudomonas fluorescens mutant G336W, Blepharisma japonicum and Kordia algicida and cloned into the binary vector pBin19 allowing the integration of DNA into the tobacco genome, under the control of the CaMV35S promoter. For the cloning procedures, see A2 above for Avena sativa, see B2 above for Pseudomonas fluorescens, mutant G336W, see PCT/EP2010/070567 (published as WO 2011/076882, Example 5; for Blepharisma japonicum (FMP37) and see PCT/EP2010/070575, Example 5 for Kordia algicida (FMP27). Between the sequence corresponding to the promoter and the sequence coding for the HPPD a DNA sequence coding for a transit peptide to the chloroplast was inserted, in order to add at the N-terminal extremity of the protein a target signal to allow the localization of the HPPD protein into the plant chloroplast.
as §1, §2, §3, §4

[3] = tested on: transgenic tobacco plants expressing HPPD from Blepharisma japonicum (FMP37); experiment: as above; settings: 50 g Al/ha, one week after application
Text: as §5, §1, §2, §3, §4

[4] = tested on: transgenic tobacco plants expressing HPPD from Kordia algicida FMP27; experiment: as above; settings: 50 g Al/ha, one week after application
Text: as §5, §1, §2, §3, §4

[5] = tested on: transgenic tobacco plants expressing mutant Pseudomonas fluorescens HPPD G336W (PfHPPD-G336W); experiment: as above; settings: PfHPPD-G336W line 646; 50 g Al/ha; one week after application
Text: as §5, §1, §2, §3, §4

[6] = tested on: transgenic tobacco plants expressing tolerant HPPD enzymes; experiment: Tolerance of tobacco plants expressing tolerant HPPD enzymes (all transgenes)
Text: as §5, §1, §2, §3, §4

[7] = tested on: soybean plants expressing Pseudomonas fluorescens G336W mutant, FMP 27 and FMP 37; experiment: Tolerance to HPPD inhibitors of soybean plants expressing tolerant HPPD enzymes; settings: T1 soybean plants; one week after application
Text: (§6) Genes coding for the selected HPPD were obtained from a member of the group of organisms consisting of Blepharisma japonicum and Kordia algicida and cloned into an appropriate binary vector allowing the integration of DNA into the soybean genome, under the control of the CaMV35S promoter. For the respective cloning procedures, see WO2011076882 (PCT/EP2010/070567), Example 9; for Blepharisma japonicum (FMP37) and WO2011076889 (PCT/EP2010/070575), Example 9 for Kordia algicida (FMP27).
Between the sequence corresponding to the promoter and the sequence coding for the HPPD a DNA sequence coding for a transit peptide to the chloroplast was inserted, in order to add at the N-terminal extremity of the protein a target signal to allow the localization of the HPPD protein into the plant chloroplast. By using the vectors “pFCO112” (Blepharisma japonicum, WO2011076882), pFCO116 (Korida algicida, WO2011076889), and pFCO117” (see Example B2, above), soybean transformation was achieved as described in Example 10 of WO2011076882 (PCT/EP2010/070567) for Blepharisma japonicum (FMP37) and WO2011076889 (PCT/EP2010/070575) for Kordia algicida (FMP27). Seeds from TO events showing tolerance to tembotrione were harvested.
T1 Soybean seeds were transferred to single pots and grown under standard cultivation conditions, see WO2011076882.
Two weeks later, plants will be sprayed with several N-(tetrazol-4-yl)- or N-(triazol-3-yl)arylcarboxamides as defined above.

[8] = tested on: cotton plants expressing FMP 27 and FMP 37; experiment: Tolerance to HPPD inhibitors of cotton plants expressing tolerant HPPD enzymes; settings: T1 cotton plants; one week after application
Text: as §6, with “the cotton” for “the soybean”, “Example 11;” for “Example 9;”, “Example 11” for “Example 9”
Between the sequence corresponding to the promoter and the sequence coding for the HPPD a DNA sequence coding for a transit peptide to the chloroplast was inserted, in order to add at the N-terminal extremity of the protein a target signal to allow the localization of the HPPD protein into the plant chloroplast. Cotton transformation was achieved as described in Example 12 of WO2011076882 (PCT/EP2010/070567) for Blepharisma japonicum (FMP37) and WO2011076889 (PCT/EP2010/070575) for Kordia algicida (FMP27). Seeds from T0 events showing tolerance to tembotrione were harvested.
T1 Cotton seeds were transferred to single pots and grown under standard cultivation conditions, see WO2011076882 (PCT/EP2010/070567) for Blepharisma japonicum (FMP37) and WO2011076889 (PCT/EP2010/070575) for Kordia algicida (FMP27).
At least 4 weeks later, plants will be sprayed with several N-(tetrazol-4-yl)- or N-(triazol-3-yl)arylcarboxamides as defined above.

## Cn1nnnc1NC(=O)c1ccc(C(F)(F)F)cc1S(C)(=O)=O [Compound 4-25]
[1]
  number of plants with Damage 0 (No damage): 0
  number of plants with Damage 1 (Light and transient damage): 0
  number of plants with Damage 2 (Strong damage): 0
  number of plants with Damage 3 (Very strong damage): 10
[2]
  number of plants with Damage 0 (No damage): 6
  number of plants with Damage 1 (Light and transient damage): 1
  number of plants with Damage 2 (Strong damage): 0
  number of plants with Damage 3 (Very strong damage): 3
[3]; FMP37 line 749
  number of plants with Damage 0 (No damage): 8
  number of plants with Damage 1 (Light and transient damage): 0
  number of plants with Damage 2 (Strong damage): 0
  number of plants with Damage 3 (Very strong damage): 2
[3]; FMP37 line 754
  number of plants with Damage 0 (No damage): 3
  number of plants with Damage 1 (Light and transient damage): 5
  number of plants with Damage 2 (Strong damage): 1
  number of plants with Damage 3 (Very strong damage): 1
[3]; FMP37 line 795
  number of plants with Damage 0 (No damage): 7
  number of plants with Damage 1 (Light and transient damage): 0
  number of plants with Damage 2 (Strong damage): 1
  number of plants with Damage 3 (Very strong damage): 2
[4]; FMP27 line 733
  number of plants with Damage 0 (No damage): 9
  number of plants with Damage 1 (Light and transient damage): 1
  number of plants with Damage 2 (Strong damage): 0
  number of plants with Damage 3 (Very strong damage): 0
[4]; FMP27 line 734
  number of plants with Damage 0 (No damage): 6
  number of plants with Damage 1 (Light and transient damage): 3
  number of plants with Damage 2 (Strong damage): 0
  number of plants with Damage 3 (Very strong damage): 1
[4]; FMP27 line 735
  number of plants with Damage 0 (No damage): 5
  number of plants with Damage 1 (Light and transient damage): 3
  number of plants with Damage 2 (Strong damage): 0
  number of plants with Damage 3 (Very strong damage): 0
[5]
  number of plants with Damage 0 (No damage): 10
  number of plants with Damage 1 (Light and transient damage): 0
  number of plants with Damage 2 (Strong damage): 0
  number of plants with Damage 3 (Very strong damage): 0
[6]; T1 plants sprayed, evaluated one week after application
  tolerance of the transgenic tobacco plants (symptoms due to application of the herbicide): good tolerance
[6]; all tested independent lines, agronomically relevant dose
  sensitivity of transgenic tobacco plants compared to wild type (wt) plants: less sensitive
[7]
  tolerance of transgenic plants compared to the wild-type soybean plants: superior tolerance
[8]
  tolerance of transgenic plants compared to the wild-type cotton plants: superior tolerance
